In patent US20240247289A1, “ANTIBIOTIC FREE FERMENTATIONS, SYSTEMS AND METHODS FOR ACHIEVING ANTIBIOTIC FREE FERMENTATIONS, AND FE[…]-PRODUCTS GENERATED BY ANTIBIOTIC FREE FERMENTATIONS” (POET Research, Inc., priority 2023, published 2024):

Assays:
[1] = tested on: lactic acid bacteria; conditions: cook process fermentation, infected, formic acid 100-400 ppm without hop acids (FIG. 4)
Description: (§1) Saccharomyces cerevisiae, was added to a yeast propagation set up as follows. Liquefied corn slurry acquired from a biorefinery was diluted in an appropriate ratio to obtain slurry (mash) with 20 percent dry solids (including the solids contributed by the pre-blend water). The pH of the slurry liquefact was approximately 5.0-5.5. The enzyme blend for fermentation was added to the slurry. Urea (50 percent liquor) was added to the slurry to give a final concentration of approximately 1000 ppm urea. The slurry was dispensed in 100 milliliter wide mouth bottles at 60 milliliters per bottle. The bottles were covered with a bottle cap with a 1/16″ hole drilled into the top for gas release following addition of enzyme and inoculation of the necessary organisms and placed stationary in a water bath. The fermentation temperature was held constant at 32.2 degrees Celsius for 8-16 hours. This yeast propagation was then used to inoculate fermentations including yeast at a ratio level of 2% total fermentation volume.
(§2) Liquefied corn slurry was acquired from a biorefinery with 30-35% percent dry solids (including the solids contributed by the pre-blend water). The pH of the slurry was approximately 5.0. The enzyme blend for fermentation was added to the slurry. Urea (50 percent liquor) was added to the slurry to give a final concentration of approximately 1000 ppm urea. The slurry was mixed in 100 milliliter wide mouth bottles at 60 milliliters per bottle. The bottles were covered with a bottle cap with a 1/16″ hole drilled into the top for gas release following addition of enzyme and inoculation of the necessary organisms and placed stationary in a water bath. The fermentation temperature was held constant at 33 degrees Celsius for 72 hours. Bottles were mixed well, and samples were withdrawn at various intervals during the course of fermentation and analyzed for sugars, organic acids and ethanol using high performance liquid chromatography (HPLC).

[2] = tested on: Saccharomyces cerevisiae; conditions: cook process fermentation, infected
Description: as §1, §2

[3] = tested on: lactic acid bacteria; conditions: RSH fermentation, infected samples, formic acid alone 100-400 ppm (FIG. 2)
Description: (§3) Saccharomyces cerevisiae, yeast was added to a yeast propagation set up as follows. Ground corn was mixed with “pre-blend” (a mixture of the waters from various streams that are reused in an ethanol production facility) in an appropriate ratio to obtain slurry (mash) with 35 percent dry solids (including the solids contributed by the pre-blend water). “Preblend” was used as make up water in these studies to simulate the composition of mash, employing an exemplary embodiment provided herein, as it would be in a commercial ethanol production facility. The pH of the corn and “pre blend” slurry was approximately 4.5-4.8. An enzyme blend for raw starch hydrolysis was added to the slurry. Urea (50 percent liquor) was added to the slurry to give a final concentration of approximately 1000 ppm urea. The slurry was mixed in 100 milliliter wide mouth bottles at 60 milliliters per bottle. The bottles were covered with a bottle cap with a 1/16″ hole drilled into the top for gas release following addition of enzyme and the yeast and placed stationary in a water bath. […]
(§4) The slurry was mixed in 100 milliliter wide mouth bottles at 60 milliliters per bottle. […] Bottles were mixed well, and samples were withdrawn at various intervals during the course of fermentation and analyzed for sugars, organic acids and ethanol using high performance liquid chromatography (HPLC).

[4] = tested on: Saccharomyces cerevisiae; conditions: RSH fermentation, infected samples, formic acid alone 100-400 ppm, compared to other infected samples (FIG. 1)
Description: as §3, §4

`O=CO` [formic acid] was tested, and the “Ppm lactic acid at 72 hours” value [1] was “decreased dose dependently”, the “% v/v ethanol at 72 hours, vs Phibro Xact 2.5 ppm” value ([2]; formic acid treated samples, at most dosages (FIG. 3)) was “greater than the % v/v ethanol generated by fermentation with Phibro Xact” and the “% v/v ethanol at 72 hours” value ([2]; increasing doses of formic acid alone 100-400 ppm (FIG. 3)) was “increase in % v/v ethanol”. The “ppm lactic acid at 88 hours” value [3] was “reduced lactic acid ppm at 88 hours fermentation in a dose dependent method” and the “% v/v ethanol at 88 hours” value [4] was “substantially reduced % v/v ethanol”.
